Results on ten compounds are retold here after paper PMC10877733, “Discovery and Characterization of VU0542270, the First Selective Inhibitor of Vascular Kir6.1/SUR2B KATP Channels” (Molecular Pharmacology, 2024).

SMILES strings stand for the structures. Where two headings read alike, the source gives them in different places.

One assay has as its target T1, Kir6.1/SUR2B (Homo sapiens, UniProt O60706).
T1 construct: expressed in transfected cells; also transiently transfected HEK293T
The assay is described as follows: Thallium flux assay of Kir6.1/SUR2B in HEK293 cells. Format: cell-based. The settings on record: for Kir6.1/SUR2B inhibition, SAR in words: modification of the right side thiophene. An excerpt:
The pcDNA3.1-SUR2B plasmid was generously provided by Dr. Colin Nichols (Washington University). […] Stably transfected tetracycline-regulated expression human embryonic kidney-293 (T-Rex-HEK293) cells expressing both plasmids were generated by cotransfecting cells with Lipofectamine LTX followed by antibiotic selection and clonal selection using the thallium flux assay described below. […] The cell culture media contained Dulbecco's modified Eagle's medium (Gibco, 11965-092) supplied with heat-inactivated FBS (bio-techne, Minneapolis, MN […],10%), Blasticidine HCl (Gibco, A11139-03, 10 ug/mL), Penicillin-Streptomycin (Gibco, 15140-122, 2 mM), G418 Sulfate (CORNING, Corning, NY, 30-234-CR, 1 mg/mL), and Hygromycin B (Invitrogen, Carlsbad, CA, 10687-010, 250 ug/mL). For selectivity assays, HEK293T cells were cotransfected with Kir6.x and SURX with Lipofectamine LTX and incubated for 48 hours before thallium flux assays. […] [[…] et al., 2019]). […] Dye-loaded cells were washed with assay buffer and transferred to a Panoptic Kinetic Imaging Plate Reader (Wavefront Bioscience, Franklin, TN). Control and test compound treatments were for 4 minutes prior to adding 0.5 mM chloride-free thallium stimulus buffer (Ion Bioscience) to initiate thallium flux. […] Selectivity assays against other Kir channels were performed essentially as described previously ([[…] et al., 2018]; [[…] al., 2022]). […] Data were acquired using Panoptic Software, Waveguide (Wavefront Biosciences). Raw fluorescence values were imported for analysis into custom software (VICB, Vanderbilt University). Fluorescence versus time values for each well were normalized to the initial fluorescence value [F/F0]. […] CRC data were plotted in GraphPad Prism (GraphPad Software, San Diego, CA) and fitted with a four-parameter logistic model to determine IC50 values for rank-ordering hit potency.

The test system of assay [1] is isolated mouse ductus arteriosus vessels. As to the kind of experiment: Pressure myography of isolated ductus arteriosus vessels. The settings on record: term gestation mouse DA. The method, then: CD-1 mice were maintained at Vanderbilt University Medical Center in accordance with protocols approved by the Institutional Animal Care and Use Committee. Timed matings were performed to produce offspring at specific stages of development. The presence of a vaginal plug was designated as embryonic day 1.
Term-gestation (embryonic day 19) fetal mouse DAs were isolated and mounted on glass pipet tips in microvessel perfusion chambers as previously reported ([Hooper et al., 2016]). Deoxygenated Krebs buffer was warmed to 37°C and circulated throughout the chamber. Vessels were pressurized in a stepwise manner to physiologic neonatal mouse mean arterial pressure (20 mmHg) and then challenged with 50 mM KCl to test reactivity. […] For dose-response studies, vessels were first dilated by circulating Krebs buffer bubbled with 95% nitrogen, 5% CO2 to mimic the hypoxic conditions of the womb. […] Following each dose, lumen diameters were allowed to plateau (approximately 20 minutes) before the next dose was added. Continuous lumen diameter measurements were recorded using a digital image capture system (IonOptix). An N of >6 vessels from at least three different litters was used for each experimental condition. Changes in lumen diameter are represented as the percent change in diameter compared with the baseline lumen diameter of vessels prior to drug exposure. […] Values represent mean ± S.D.

The next assay deals with T2, Kir6.2/SUR1 (Homo sapiens, UniProt Q09428).
T2 construct: expressed in transfected cells; also transiently transfected HEK293T
T2 sequence (Q09428 whole entry, species assumed): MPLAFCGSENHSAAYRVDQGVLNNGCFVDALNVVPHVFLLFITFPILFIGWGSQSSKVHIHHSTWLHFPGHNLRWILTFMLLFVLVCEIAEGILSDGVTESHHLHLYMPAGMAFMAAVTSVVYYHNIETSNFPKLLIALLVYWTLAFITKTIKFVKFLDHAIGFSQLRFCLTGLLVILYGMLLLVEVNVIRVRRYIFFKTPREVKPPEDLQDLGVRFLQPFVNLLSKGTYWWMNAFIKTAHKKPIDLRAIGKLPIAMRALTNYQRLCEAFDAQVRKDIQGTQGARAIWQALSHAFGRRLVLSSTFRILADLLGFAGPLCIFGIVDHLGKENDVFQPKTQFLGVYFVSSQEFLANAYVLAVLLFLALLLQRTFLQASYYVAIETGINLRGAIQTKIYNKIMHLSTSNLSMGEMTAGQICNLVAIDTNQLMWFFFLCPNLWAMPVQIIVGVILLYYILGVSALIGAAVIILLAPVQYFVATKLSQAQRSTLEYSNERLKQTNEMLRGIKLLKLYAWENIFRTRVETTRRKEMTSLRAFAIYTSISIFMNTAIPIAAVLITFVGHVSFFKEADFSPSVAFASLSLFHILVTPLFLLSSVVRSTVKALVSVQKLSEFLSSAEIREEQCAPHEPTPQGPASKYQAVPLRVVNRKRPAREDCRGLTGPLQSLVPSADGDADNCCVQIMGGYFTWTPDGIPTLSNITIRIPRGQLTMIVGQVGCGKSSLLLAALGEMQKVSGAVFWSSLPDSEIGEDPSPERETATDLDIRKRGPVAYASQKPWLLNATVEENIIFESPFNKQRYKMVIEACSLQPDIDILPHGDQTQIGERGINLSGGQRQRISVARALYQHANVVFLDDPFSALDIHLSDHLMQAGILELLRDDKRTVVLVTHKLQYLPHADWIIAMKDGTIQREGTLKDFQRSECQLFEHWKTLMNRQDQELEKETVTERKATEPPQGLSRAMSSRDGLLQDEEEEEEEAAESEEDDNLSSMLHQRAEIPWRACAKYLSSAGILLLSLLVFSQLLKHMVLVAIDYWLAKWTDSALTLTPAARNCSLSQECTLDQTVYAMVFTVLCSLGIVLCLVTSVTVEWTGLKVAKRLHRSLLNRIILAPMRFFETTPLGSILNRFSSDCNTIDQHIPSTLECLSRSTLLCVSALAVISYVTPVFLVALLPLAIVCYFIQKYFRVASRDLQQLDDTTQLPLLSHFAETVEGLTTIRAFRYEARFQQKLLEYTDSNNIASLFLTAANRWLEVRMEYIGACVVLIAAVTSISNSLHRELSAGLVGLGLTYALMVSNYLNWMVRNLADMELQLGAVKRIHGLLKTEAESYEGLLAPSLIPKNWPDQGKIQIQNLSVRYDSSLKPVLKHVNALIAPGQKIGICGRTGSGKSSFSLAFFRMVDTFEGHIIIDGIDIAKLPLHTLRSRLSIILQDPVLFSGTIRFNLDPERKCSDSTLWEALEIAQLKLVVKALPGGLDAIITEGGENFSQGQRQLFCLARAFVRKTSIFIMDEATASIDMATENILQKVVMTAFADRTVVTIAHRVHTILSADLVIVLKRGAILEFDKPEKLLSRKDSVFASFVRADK
T2 sequence (Q14654 whole entry partner, species assumed): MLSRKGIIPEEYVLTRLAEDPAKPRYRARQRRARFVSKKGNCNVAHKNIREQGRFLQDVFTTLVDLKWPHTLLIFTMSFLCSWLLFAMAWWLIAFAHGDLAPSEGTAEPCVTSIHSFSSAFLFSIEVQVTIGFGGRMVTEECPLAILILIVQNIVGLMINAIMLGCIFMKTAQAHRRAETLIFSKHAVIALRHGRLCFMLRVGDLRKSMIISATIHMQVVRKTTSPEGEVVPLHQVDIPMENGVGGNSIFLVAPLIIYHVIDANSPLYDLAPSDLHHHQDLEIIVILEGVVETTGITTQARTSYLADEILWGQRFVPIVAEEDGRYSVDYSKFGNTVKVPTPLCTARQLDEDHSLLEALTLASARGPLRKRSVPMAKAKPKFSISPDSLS
As to the kind of experiment: Thallium flux assay of Kir6.2/SUR1 in HEK293 cells. Format: cell-based. The settings on record: T-Rex-HEK293-Kir6.2/SUR1 cells. The method, then:
The pcDNA3.1-SUR2B plasmid was generously provided by Dr. Colin Nichols (Washington University). The pcDNA5/TO-Kir6.1 plasmid was synthesized by GenScript. […] For selectivity assays, HEK293T cells were cotransfected with Kir6.x and SURX with Lipofectamine LTX and incubated for 48 hours before thallium flux assays.
Stable T-Rex-HEK293-Kir6.1/SUR2B cells or transiently transfected HEK293T cells were plated in polyamine-coated, clear-bottomed, black-walled 384-well plates and were cultured (37°C/5% CO2) overnight in Dulbecco’s modified Eagle’s medium (Gibco, Carlsbad, CA, 11995-065) containing 10% FBS (2 mM Penicillin-Streptomycin). The following day, cells were washed with assay buffer (i.e., Hanks’ balanced salt solution/20 mM HEPES) and loaded for 1 hour with thallium sensor dye Brilliant Thallium (Ion Bioscience, San Marcos, TX) at room temperature. Dye-loaded cells were washed with assay buffer and transferred to a Panoptic Kinetic Imaging Plate Reader (Wavefront Bioscience, Franklin, TN). Control and test compound treatments were for 4 minutes prior to adding 0.5 mM chloride-free thallium stimulus buffer (Ion Bioscience) to initiate thallium flux.

[2] abbreviates: pinacidil-activated, read-out: Kir6.1/SUR2B IC50.

T1 sequence (O60706 1-1549 isoform O60706-2, species assumed): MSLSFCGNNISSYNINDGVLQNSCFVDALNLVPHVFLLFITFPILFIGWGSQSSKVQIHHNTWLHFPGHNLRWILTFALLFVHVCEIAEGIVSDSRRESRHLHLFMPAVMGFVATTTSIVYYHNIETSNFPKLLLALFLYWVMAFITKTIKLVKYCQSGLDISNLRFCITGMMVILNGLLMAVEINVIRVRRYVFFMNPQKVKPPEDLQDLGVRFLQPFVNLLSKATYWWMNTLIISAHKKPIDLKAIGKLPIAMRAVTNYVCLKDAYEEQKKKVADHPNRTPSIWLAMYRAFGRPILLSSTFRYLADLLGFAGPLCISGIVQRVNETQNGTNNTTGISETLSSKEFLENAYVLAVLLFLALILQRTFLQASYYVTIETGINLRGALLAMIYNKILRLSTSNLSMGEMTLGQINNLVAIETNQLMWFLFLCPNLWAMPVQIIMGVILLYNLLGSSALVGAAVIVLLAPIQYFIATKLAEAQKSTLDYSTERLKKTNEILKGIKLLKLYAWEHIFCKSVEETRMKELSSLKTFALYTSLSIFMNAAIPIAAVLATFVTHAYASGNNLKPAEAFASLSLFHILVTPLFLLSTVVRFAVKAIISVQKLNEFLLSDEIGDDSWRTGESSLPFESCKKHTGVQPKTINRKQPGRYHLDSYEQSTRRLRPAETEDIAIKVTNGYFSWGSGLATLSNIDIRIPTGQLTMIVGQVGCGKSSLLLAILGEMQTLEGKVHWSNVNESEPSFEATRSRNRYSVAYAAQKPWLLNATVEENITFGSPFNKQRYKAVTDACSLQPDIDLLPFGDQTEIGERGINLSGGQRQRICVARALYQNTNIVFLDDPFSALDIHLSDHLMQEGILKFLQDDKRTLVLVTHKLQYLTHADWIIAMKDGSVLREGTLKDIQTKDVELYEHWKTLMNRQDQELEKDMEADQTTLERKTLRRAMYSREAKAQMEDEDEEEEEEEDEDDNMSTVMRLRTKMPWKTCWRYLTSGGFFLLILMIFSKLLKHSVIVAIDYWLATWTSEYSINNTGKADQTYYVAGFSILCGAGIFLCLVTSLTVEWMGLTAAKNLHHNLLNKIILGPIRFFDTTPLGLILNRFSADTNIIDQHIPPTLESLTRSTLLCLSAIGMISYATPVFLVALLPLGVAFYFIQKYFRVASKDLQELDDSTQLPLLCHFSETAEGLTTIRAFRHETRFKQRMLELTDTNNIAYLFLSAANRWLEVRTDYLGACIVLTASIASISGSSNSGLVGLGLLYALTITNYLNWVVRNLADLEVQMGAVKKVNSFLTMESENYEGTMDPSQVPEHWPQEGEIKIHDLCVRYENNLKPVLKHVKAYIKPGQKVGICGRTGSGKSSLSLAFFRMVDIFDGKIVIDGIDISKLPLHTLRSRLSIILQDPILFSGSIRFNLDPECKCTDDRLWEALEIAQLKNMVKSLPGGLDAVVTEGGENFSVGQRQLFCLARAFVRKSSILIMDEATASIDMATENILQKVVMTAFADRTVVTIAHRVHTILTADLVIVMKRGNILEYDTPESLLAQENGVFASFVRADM
T1 sequence (Q15842 whole entry partner, species assumed): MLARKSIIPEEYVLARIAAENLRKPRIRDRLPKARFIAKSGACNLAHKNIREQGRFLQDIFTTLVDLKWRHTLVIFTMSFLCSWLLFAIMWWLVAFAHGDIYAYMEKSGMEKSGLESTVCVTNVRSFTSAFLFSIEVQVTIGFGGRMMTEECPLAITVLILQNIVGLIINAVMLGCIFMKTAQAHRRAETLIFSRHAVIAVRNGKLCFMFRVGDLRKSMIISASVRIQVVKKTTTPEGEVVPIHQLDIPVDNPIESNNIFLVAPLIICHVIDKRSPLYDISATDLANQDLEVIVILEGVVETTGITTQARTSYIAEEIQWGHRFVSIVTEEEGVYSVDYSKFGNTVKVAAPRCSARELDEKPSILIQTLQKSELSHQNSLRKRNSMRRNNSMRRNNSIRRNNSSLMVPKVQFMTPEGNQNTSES

Take `Cc1nc(-c2ccccc2F)sc1CNC(=O)Nc1cccs1` [compound 5]: the IC50 on Kir6.1/SUR2B (setting [2]) came out at 545 nM.
For `Cc1nc(-c2cccs2)sc1CNC(=O)Nc1cccnc1` [compound 6], on Kir6.1/SUR2B, the “Kir6.1/SUR2B inhibition, SAR in words” value is reported as “very weak”. The IC50 on Kir6.1/SUR2B (setting [2]) was 1620 nM.
Consider `Cc1nc(-c2cccs2)sc1CNC(=O)Nc1ccncc1` [compound 7], for which the “Kir6.1/SUR2B inhibition, SAR in words” value on Kir6.1/SUR2B is listed as “very weak”. Also, the IC50 at Kir6.1/SUR2B (setting [2]) was 12600 nM.
With `O=C(NCc1cc(-c2ccncc2)n(C2CCCC2)n1)Nc1cccs1` [compound 8], the IC50 on Kir6.1/SUR2B (setting [2]) is 527 nM.
Same read-out and setting: the same measure for `Cn1nc(CNC(=O)Nc2cccs2)cc1-c1ccncc1` [compound 9]: 6130 nM; for `Cn1nc(CNC(=O)Nc2cccc(C(F)(F)F)c2)cc1-c1ccncc1` [compound 10]: 857 nM.
For `O=C(NCC1(c2ccc(F)cc2)CC1)Nc1cccs1` [compound 11], at Kir6.1/SUR2B (setting [2]), the IC50 worked out at 987 nM.
With `Cn1nc(CNC(=O)Nc2cccs2)c2ccccc2c1=O` [compound 12], on Kir6.1/SUR2B (setting [2]), the IC50 came out at 780 nM.
In the case of `COc1ccc(Cl)cc1C(=O)NCCc1ccc(S(=O)(=O)NC(=O)NC2CCCCC2)cc1` [glibenclamide, reference compound], the IC50 at Kir6.1/SUR2B (transfected HEK-293 cells, pinacidil activation, read-out: Kir6.1/SUR2B IC50 (Fig. 4C)) turned out to be 115 nM. Moreover, the “ductus arteriosus vessel constriction” value in assay [1] (increasing concentrations, compound alone) is “constricted in a concentration-dependent manner”. The “ductus arteriosus vessel constriction in the presence of pinacidil” value in assay [1] (with 10 µM pinacidil) was “substantially blunted vasoconstrictive effects”.
As to `CC(N/C(=N\C#N)Nc1ccncc1)C(C)(C)C` (centres unmarked) [pinacidil, reference compound], the “effect on Kir6.2/SUR1 thallium flux (opening)” value on Kir6.2/SUR1 is listed as “no effect”.
